ChEMBL document CHEMBL1146127, “Aminobenzisoxazoles with biaryl P4 moieties as potent, selective, and orally bioavailable factor Xa inhibitors” (Bioorg Med Chem Lett, 2006)

Columns and labels:
in vivo [1] = settings: dog, iv, 0.4 mg/kg
in vivo [2] = settings: dog, iv, 0.4 mg/kg; remark: listed apart in the source
in vivo [3] = settings: dog
in vivo [4] = settings: dog, po, 0.2 mg/kg

clearance (in vivo [1]): 28.3 mL/min/kg
Vd (in vivo [2]): 23 L/kg
half-life (in vivo [3]): 10 h
bioavailability (in vivo [4]): 64%
SMILES: Nc1noc2ccc(-n3nc(C(F)(F)F)cc3C(=O)Nc3ccc(-c4ccccc4CN4CCCC4)cc3F)cc12
